Source: patent publication US5817297A, “Composition for enhancing oral hygiene” (LG Chemical Ltd., priority 1996, dated 1998)

How the values were obtained:
collagenase [1] = assay: Inhibition of collagenase activity (azocol digestion, absorbance at 540 nm), Experiment 1; assay type: biochemical; conditions: Table 4; final concentration 0.02%, 10% ethanol solution
Protocol: The inhibition effects on collagenase activity of various substances including ursodesoxycholic acid and chenodesoxycholic acid as the effective components of the composition for enhancing oral hygiene according to the present invention were determined and compared according to the following method.
ursodesoxycholic aicd, chenodesoxycholic acid, fel tauri salt, bamboo salt, common salt, Machili cortex, Phellodendri cortex, Platycodi radix, Schizonepetae herba, Glycyrrhizae radix, Angelicae gigantis radix, Chamomillae flos, Myrrha, Theae folium, Taraxaci radix cum Herba, Lonicerae flos, Ciniicifugae rhizoma.
1 100 μl of 2% azocol solution was added to the test tube and then 190 μl of buffer solution (0.05M Tris-HCl, 1 mM CaCl2, pH 7.8) was added thereto.
2 To the resulting solution as prepared above was added to each test substance in the following concentration:
Ursodesoxycholic acid (10% ethanol solution) or chenodesoxycholic acid (10% ethanol solution) was added to the final concentration of 0.02%;
Fel tauri salt, bamboo salt or common salt was dissolved in the buffer solution as mentioned above and then added to the final concentration of 2.0%;
Machili cortex, Phellodendri cortex, Platycodi radix, Schizonepetae herba, Glycyrrhizae radix, Angelicae gigantis radix, Chamomillae flos, Myrrha, Theae folium, Taraxaci radix cum Herba, Lonicerae flos or Cimicifugae rhizoma was added in the form of 30% ethanol extract to the final concentration of 0.1%.
3 100 μl of collagenase having 100 ppm concentration was added and then the mixture was maintained in a 37° C. incubator for 18 hours. (Separately, the standard activity curve was prepared from 10, 100, 200 μl of collagenase.)
4 The test tubes were centrifuged for 5 minutes.
5 The supernatant was separated from the test tube and then added to the cell. The absorbance at 540 nm was measured by spectrophotometer and then the activity of the test group was determined from the standard activity curve.

plaque formation [2] = assay: Plaque index of test subjects using oral rinse of Table 2, Experiment 4; assay type: in vivo, human; conditions: in words
Text: (§1) 1 The test subjects were selected and were given the explanation of oral medical examination.
(§2) 2 The test subjects were divided such that the group for each composition of examples and comparative examples includes 10 subjects, and then had the education of correct brushing method. The test subject were subjected to the oral medical examination to measure the plaque index (Quigley-Hein Index modified by Turesky) and the gingivitis index (Gingival Bleeding Index, Loe-Silness Index).
(§3) 3 Before the test, all the test subjects were subjected to teeth scaling.
(§4) 4 The placebo dentifrice(calcium monohydrogenphosphate 40%, glycerin 25%, sodium laurylsulfate 1.5%, sodium saccharin 0.1%, paraoxybenzoic acid ester 0.1%, sodium carboxymethylcellulose 1%, purified water added to 100%) was used for 2 weeks and then the oral medical exmamination was conducted again to measure the plaque index and the gingivitis index as the initial value.
(§5) 5 The test subjects were allowed to brush using the dentifrice of examples and comparative examples for 4 weeks, three times for one day, according to the same method as usual. The oral medical examination was conducted at the second and fourth weeks to determine the plaque index score and the gingivitis index score.
6 The score obtained after 4 weeks was compared with the initial value and examined for the statistic significance using T-test. […]

gingivitis [3] = assay: Gingivitis index of test subjects using dentifrice of Table 1, Experiment 3; assay type: in vivo, human; conditions: for effect of alleviating gingivitis / effect on gingivitis in combination with bamboo salt, the extract of medicinal herbs, etc.: dentifrice, in words
Protocol: (§6) The effect of inhibiting plaque formation and gingivitis was tested using the dentifrice compositions of Examples 1 to 6 and Comparative Examples 1 to 4 described in Table 1 according to the following method. The results are described in the following Tables 7 and 8.
as §1, §2, §3, §4, §5
(§7) 6 The score obtained after 4 weeks was compared with the initial value and examined for the statistic significance using T-test.

[4] = system: Streptococcus mutans 10449, type C; assay: Inhibition of plaque formation on glass bar by Streptococcus mutans, Experiment 2; assay type: cell-based; conditions: for plaque formation(%): 1440 min
Protocol: The inhibition effect of ursodesoxycholic acid, chenodesoxycholic acid and triclosan as the effective components of the composition for enhancing oral hygiene according to the present invention on plaque formation was determined and compared according to the following method.
Ursodesoxycholic acid, Chenodesoxycholic aicd, Triclosan.
1 Test strain, Streptococcus mutans 10449, type C was cultured in brain-heart infusion agar medium and then the cultured strain was inoculated on THB(Todd Hewitt Broth) and cultured at 37° C. for 15 hours.
2 The small glass bar was sterilized and then weighed.
3 This glass bar was introduced into the test tube in which the medium containing sucrose is included. The test substance was added at a given concentration to the test tube and then the test microorganism strain was added thereto. The test tube was cultured at 37° C. for 24 hours.
4 After incubation, the glass bar was carefully removed from the test tube and dried at 37° C. for one day. The final weight of the glass bar was measured. The control group was treated in the same manner as the test group except that the test substance is not added.
5 From the measured result, the plaque formation percentage was calculated according to the following equation: [formula]

collagenase [5] = assay: Inhibition of collagenase activity (azocol digestion, absorbance at 540 nm), Experiment 1; assay type: biochemical; conditions: for Absorbance (540 nm) / Enzyme activity inhibition (%): Table 5; for activity for inactivating collagenase / inhibition effect at the concentration in excess of 0.6% / inhibition effect on collagenase activity in comparison with extracts of other medicinal herbs: in words
gingivitis [6] = assay: Gingivitis index of test subjects using oral rinse of Table 2, Experiment 4; assay type: in vivo, human; conditions: in words
Text: as §1, §2, §3, §4, §5, §7
The effect of inhibiting plaque formation and gingivitis was tested using the oral rinse compositions of Examples 7 to 12 and Comparative Examples 5 to 8 described in Table 2 according to the same method as Experiment 3. The results are described in the following Tables 9 and 10.

plaque formation [7] = assay: Plaque index of test subjects using dentifrice of Table 1, Experiment 3; assay type: in vivo, human; conditions: in words; for effect on the plaque formation: dentifrice
Protocol: as §6, §1, §2, §3, §4, §5, §7

C[C@H](CCC(=O)O)[C@H]1CC[C@H]2[C@@H]3[C@H](O)C[C@@H]4C[C@H](O)CC[C@]4(C)[C@H]3CC[C@]12C [Chenodesoxycholic acid, chenodesoxycholic acid]
Absorbance (540 nm) (collagenase [1]): 0.260
Enzyme activity inhibition (%) (collagenase [1]): 39.23%
effect on the plaque formation (plaque formation [2]): no significant effect on the plaque formation
effect of alleviating gingivitis (gingivitis [3]): good effect of alleviating gingivitis
effect on gingivitis in combination with bamboo salt, the extract of medicinal herbs, etc. (gingivitis [3]): synergistic alleviating effect on gingivitis
pH ([4]; 0.100 (unit not given)): 4.2
plaque formation(%) ([4]; 0.100 (unit not given)): 100.0%
concentration at which inhibition effect on collagenase begins (collagenase [5]): 0.01%
concentration at which inhibition effect on collagenase reaches the maximum level (collagenase [5]): 0.6%
Absorbance (540 nm) (collagenase [5]; content 0.001%): 0.324
Enzyme activity inhibition (%) (collagenase [5]; content 0.001%): -1.20%
Absorbance (540 nm) (collagenase [5]; content 0.010%): 0.315
Enzyme activity inhibition (%) (collagenase [5]; content 0.010%): 6.55%
Absorbance (540 nm) (collagenase [5]; content 0.020%): 0.260
Enzyme activity inhibition (%) (collagenase [5]; content 0.020%): 39.23%
Absorbance (540 nm) (collagenase [5]; content 0.050%): 0.230
Enzyme activity inhibition (%) (collagenase [5]; content 0.050%): 52.15%
Absorbance (540 nm) (collagenase [5]; content 0.100%): 0.180
Enzyme activity inhibition (%) (collagenase [5]; content 0.100%): 67.87%
Absorbance (540 nm) (collagenase [5]; content 0.150%): 0.052
Enzyme activity inhibition (%) (collagenase [5]; content 0.150%): 88.41%
Absorbance (540 nm) (collagenase [5]; content 0.200%): 0.007
Enzyme activity inhibition (%) (collagenase [5]; content 0.200%): 91.91%
Absorbance (540 nm) (collagenase [5]; content 0.600%): 0.002
Enzyme activity inhibition (%) (collagenase [5]; content 0.600%): 92.22%
Absorbance (540 nm) (collagenase [5]; content 1.000%): 0.002
Enzyme activity inhibition (%) (collagenase [5]; content 1.000%): 92.22%
Absorbance (540 nm) (collagenase [5]; content 2.000%): 0.002
Enzyme activity inhibition (%) (collagenase [5]; content 2.000%): 92.22%
activity for inactivating collagenase (collagenase [5]): good activity for inactivating collagenase
inhibition effect at the concentration in excess of 0.6% (collagenase [5]): not significantly increased
inhibition effect on collagenase activity in comparison with extracts of other medicinal herbs (collagenase [5]): superior inhibition effect on collagenase activity
alleviating effect for gingivitis (gingivitis [6]): good alleviating effect for gingivitis
effect on gingivitis in combination with bamboo salt, the extract of medicinal herbs, etc. (gingivitis [6]): synergistic allevia- ting effect on gingivitis
effect on the plaque formation (plaque formation [7]): no significant effect on the plaque formation
plaque effect in combination with the extract of other medicinal herbs (plaque formation [7]): do not show any synergistic and antagonistic effect

Oc1cc(Cl)ccc1Oc1ccc(Cl)cc1Cl [Triclosan, triclosan]
pH ([4]; triclosan 0.0010): 4.3
plaque formation(%) ([4]; triclosan 0.0010): 100.0%
pH ([4]; triclosan 0.0050): 4.3
plaque formation(%) ([4]; triclosan 0.0050): 100.0%
pH ([4]; triclosan 0.0100): 4.3
plaque formation(%) ([4]; triclosan 0.0100): 100.0%
pH ([4]; triclosan 0.0300): 4.5
plaque formation(%) ([4]; triclosan 0.0300): 50.0%
pH ([4]; triclosan 0.0500): 7.5
plaque formation(%) ([4]; triclosan 0.0500): 0.0%

C[C@H](CCC(=O)O)[C@H]1CC[C@H]2[C@@H]3[C@@H](O)C[C@@H]4C[C@H](O)CC[C@]4(C)[C@H]3CC[C@]12C [Ursodesoxycholic acid, ursodesoxycholic acid]
Absorbance (540 nm) (collagenase [1]): 0.243
Enzyme activity inhibition (%) (collagenase [1]): 45.64%
effect on the plaque formation (plaque formation [2]): no significant effect on the plaque formation
effect of alleviating gingivitis at the concentration in excess of 1.0 wt % (gingivitis [3]; Comparative Example 2, in words): does not show any increase of the effect in proportion to the increase of the concentration
effect of alleviating gingivitis (gingivitis [3]): good effect of alleviating gingivitis
effect on gingivitis in combination with bamboo salt, the extract of medicinal herbs, etc. (gingivitis [3]): synergistic alleviating effect on gingivitis
concentration at which the effect of alleviating gingivitis begins (gingivitis [3]; human, in vivo): 0.01 wt %
concentration with a significant effect in comparison with Comparative Example 4 (gingivitis [3]; human, in vivo): ≥ 0.02 wt %
pH ([4]; 0.100 (unit not given)): 4.2
plaque formation(%) ([4]; 0.100 (unit not given)): 100.0%
concentration at which inhibition effect on collagenase begins (collagenase [5]): 0.01%
concentration at which inhibition effect on collagenase reaches the maximum level (collagenase [5]): 0.6%
Absorbance (540 nm) (collagenase [5]; content 0.001%): 0.326
Enzyme activity inhibition (%) (collagenase [5]; content 0.001%): -2.82%
Absorbance (540 nm) (collagenase [5]; content 0.010%): 0.305
Enzyme activity inhibition (%) (collagenase [5]; content 0.010%): 13.02%
Absorbance (540 nm) (collagenase [5]; content 0.020%): 0.243
Enzyme activity inhibition (%) (collagenase [5]; content 0.020%): 45.64%
Absorbance (540 nm) (collagenase [5]; content 0.050%): 0.215
Enzyme activity inhibition (%) (collagenase [5]; content 0.050%): 57.54%
Absorbance (540 nm) (collagenase [5]; content 0.100%): 0.166
Enzyme activity inhibition (%) (collagenase [5]; content 0.100%): 71.26%
Absorbance (540 nm) (collagenase [5]; content 0.150%): 0.050
Enzyme activity inhibition (%) (collagenase [5]; content 0.150%): 88.60%
Absorbance (540 nm) (collagenase [5]; content 0.200%): 0.005
Enzyme activity inhibition (%) (collagenase [5]; content 0.200%): 92.03%
Absorbance (540 nm) (collagenase [5]; content 0.600%): 0.002
Enzyme activity inhibition (%) (collagenase [5]; content 0.600%): 92.22%
Absorbance (540 nm) (collagenase [5]; content 1.000%): 0.000
Enzyme activity inhibition (%) (collagenase [5]; content 1.000%): 92.34%
Absorbance (540 nm) (collagenase [5]; content 2.000%): 0.000
Enzyme activity inhibition (%) (collagenase [5]; content 2.000%): 92.34%
activity for inactivating collagenase (collagenase [5]): good activity for inactivating collagenase
inhibition effect at the concentration in excess of 0.6% (collagenase [5]): not significantly increased
inhibition effect on collagenase activity in comparison with extracts of other medicinal herbs (collagenase [5]): superior inhibition effect on collagenase activity
alleviating effect for gingivitis (gingivitis [6]): good alleviating effect for gingivitis
effect on gingivitis in combination with bamboo salt, the extract of medicinal herbs, etc. (gingivitis [6]): synergistic allevia- ting effect on gingivitis
effect on the plaque formation (plaque formation [7]): no significant effect on the plaque formation
plaque effect in combination with the extract of other medicinal herbs (plaque formation [7]): do not show any synergistic and antagonistic effect
